Series [1] concerns CD34+ human stem cells. The series can be described thus: CXCL12-induced migration of CD34+ human stem cells. The class given is cell-based. As for the experimental part: Peripheral hematopoietic stem (PHS) cells isolated by apheresis of Granulo-cyte colony-stimulating factor (G-CSF) treated individuals were obtained from the Institute of Transfusion Medicine, University Hospital Ulm). Frozen cells were carefully thawed in 1/10 diluted 10% ACD-A buffer (provided by the Institute of Transfusion Medicine) in PBS. 1×10^5/200 μl PHS cells were placed into the upper chamber of transwell plates. Then, 10 nM CXCL12 and/or various concentrations of the peptide of SEQ ID NO 16 or its derivatives in 600 μl culture medium were placed to each well. After 3 h, the chemotaxis was measured using the CellTiter-Glo Luminescent Cell Viability Assay as described above. All values represent mean numbers of migrated cells relative to CXCL12 only treated cells from a triplicate experiment±SD.

The subject of series [2] is DU145 cells. The series can be described thus: Cancer cell invasion assay. The class given is cell-based. The procedure:
Cell invasion of cancer cells was assayed using a Biocoat Matrigel invasion chamber (BD BioCoat™ Matrigel™ Invasion Chamber) as recommended by the manufacturer. 5×10^4 DU145 cells (ATCC) were suspended in 300 μl serum-free RPMI (Gibco) containing 0.1% BSA (KPL) and then added to the upper chamber. 700 μl serum-free medium with or without 100 nM CXCL12 and various concentrations of the peptide of SEQ ID NO 16 were added to each lower chamber. The chambers were incubated for 24 h at 37° C. in a humid atmosphere of 5% CO2/95% air. The non-invading cells were removed from the upper surface of the membrane by scrubbing. Invaded cells toward the bottom of membrane were quantified using the CellTiter-Glo® Luminescent Cell Viability Assay kit as described above.

Series [3] in a line: Transplantation of mobilized cells. The class given is in vivo. As for the experimental part: […] animals were injected with the peptide of SEQ ID NO 16 (2 mg i.p in saline) or controls saline. Peripheral blood was individually harvested 1 hour post injection, counted, combined and competitively transplanted (660 μl blood equivalent) alongside 4×10^5 C57BL/6 CD45.1 BM cells into C57BL/6 Cd45.1 recipients.

The subject of series [4] is TZM-bl cells or prestimulated PBMCs. The procedure:
To assess cytotoxic effects TZM-bl cells or prestimulated PBMCs were incubated with increasing concentrations of peptides. Cell viability was determined using the CellTiter-Glo Luminescent Cell Viability Assay (PROMEGA, G7571) as recommended by the manufacturer. Values were derived from triplicate measurements. Vitality rates were calculated relative to ATP levels in PBS (no peptide) containing cells (100%). Data were recorded using a luminometer 10 minutes after adding reagent.

In series [5] the test system is Jurkat T cells. The series can be described thus: CXCL12-induced migration of Jurkat T cells. The class given is cell-based. The procedure: Migration of Jurkat cells (ATCC) was analyzed using 6.5 mm diameter chambers with 5 μm pore filters (Transwell, 24-well cell culture, Coster, Boston, Mass.). 2×10^5 Jurkat cells were suspended in 200 μl Optimizer T-Cell Expansion SFM, and the cell suspensions were added to the upper chamber. Then, 10 nM CXCL12 (R&D System) and/or various concentrations of the peptide of SEQ ID NO 16 or its derivatives in 600 μl T-Cell Expansion SFM were added to the lower chamber. The cell culture chambers were incubated for 150 min in a cell culture incubator at 37° C. After incubation, chambers were removed, 100 μl of supernatants were taken and cells that migrated into the lower compartment were either counted directly using a hemocytometer or analyzed using the CellTiter-Glo Luminescent Cell Viability Assay as described above. All values represent mean numbers of migrated cells relative to CXCL12 only treated cells from a triplicate experiment±SD.

Series [6] addresses T1, CXCR4 (Mus musculus, UniProt P70658).
T1 construct: from tissue; host or cells: live mice (C57Bl/6J for mobilization)
The series can be described thus: Asthma mouse model (OVA challenge). The class given is in vivo. To be noted: mice, i.p., allergen challenge with OVA. The procedure: Mice were sensitized by intraperitoneal (i.p.) injection on days 0, 1 and 2 of 50 μg ovalbumin (OVA, Sigma-Aldrich, A5503) adsorbed on 2 mg aluminium hydroxide (Sigma-Aldrich, 23918-6) in saline. Mice were challenged by intranasal (i.n.) instillation of 10 μg OVA in 25 μl saline (12.5 μl/nostril) or saline alone for control mice on days 5, 6 and 7 under anesthesia (50 mg/kg ketamine and 3.3 mg/kg xylazine, i.p.). the peptide of SEQ ID NO 16 or ALB409-423 in saline were administered i.p. (16 μmol/kg) two hours before each OVA challenge. Bronchoalveolar lavage (BAL) and differential cell counts were performed 24 h after the last OVA challenge as previously reported in (Rebber et al., 2012).

The target of series [7] is T2, CXCR4 (Homo sapiens, UniProt P61073).
T2 construct: expressed in transfected cells
T2 sequence (P61073 whole entry): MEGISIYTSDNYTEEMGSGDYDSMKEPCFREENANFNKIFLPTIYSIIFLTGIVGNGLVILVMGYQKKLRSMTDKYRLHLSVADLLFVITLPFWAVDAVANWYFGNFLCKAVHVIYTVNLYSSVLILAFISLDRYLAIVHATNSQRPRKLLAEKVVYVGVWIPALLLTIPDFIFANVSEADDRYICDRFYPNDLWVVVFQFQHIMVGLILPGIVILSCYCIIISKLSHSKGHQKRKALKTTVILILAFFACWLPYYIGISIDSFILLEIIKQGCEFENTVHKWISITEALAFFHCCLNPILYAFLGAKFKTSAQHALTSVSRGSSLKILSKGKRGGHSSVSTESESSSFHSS
The series can be described thus: Competition with CXCL12 binding to CXCR4 (real-time fluorescence, eGFP-CXCR4 cells). The following applies: read-out: dissociation constant (DC50), competition with CXCL12 binding to CXCR4. The procedure:
Anti-human CXCR4 (clone 12G5, IgG2a) or anti-human CXCR7 (clone 9C4) monoclonal antibodies (mAbs) were purchased from R&D Systems (Minneapolis, Minn.). […] The human chemokines CXCL12 and CXCL12-TexasRed were synthesized as described (Valenzuela-Fernandez, et al. 2001). The human chemokine CXCL11 was purchased from Clinisciences SAS (France).
Experiments were performed using cells stably expressing eGFP-CXCR4, suspended in HEPES-bovine serum albumin buffer (10 mM HEPES, 137.5 mM NaCl, 1.25 mM MgCl2, 1.25 mM CaCl2, 6 mM KCl, 10 mM glucose, 0.4 mM NaH2PO4, 0.1% bovine serum albumin (w/v), pH 7.4) (typically at 10^6 cells/mL). Time-based recordings of the fluorescence emitted at 510 nm (excitation at 470 nm) were performed at 21° C. using a spectrofluorimeter and sampled every 0.3 s. Fluorescence binding measurements were initiated by adding at 30 s 100 nM of CXCL12-TR to the 1 mL cell suspension. For competition experiments, EGFP-CXCR4 expressing cells were preincubated for 10 min in the absence or presence of various concentrations of unlabelled drugs. Then, CXCL12-TR (100 nM) was added and fluorescence was recorded until equilibrium was reached (300 s). Data were analyzed using Kaleidagraph 3.08 software (Synergy Software, Reading, Pa., USA).

The test system of series [8] is other GPCRs. The series can be described thus: GPCR antagonist screen. The following applies: selectivity for CXCR4. The text has this: GPCR Antagonist Screen of the Peptide of SEQ ID NO 16
Series [9] concerns Candida albicans. The series can be described thus: Antifungal activity against Candida. The class given is cell-based.

No end group written: not given here.

T1 sequence (P70658 whole entry): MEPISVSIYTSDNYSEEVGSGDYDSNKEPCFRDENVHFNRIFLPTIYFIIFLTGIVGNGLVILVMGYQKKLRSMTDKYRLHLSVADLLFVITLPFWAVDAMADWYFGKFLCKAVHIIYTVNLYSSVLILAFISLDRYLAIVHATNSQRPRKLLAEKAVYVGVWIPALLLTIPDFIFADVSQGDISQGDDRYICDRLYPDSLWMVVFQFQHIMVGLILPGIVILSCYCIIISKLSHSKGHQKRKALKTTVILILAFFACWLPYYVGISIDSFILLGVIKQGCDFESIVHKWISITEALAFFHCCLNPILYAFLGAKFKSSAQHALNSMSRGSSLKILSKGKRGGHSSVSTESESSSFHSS

As for “LVRYTKKVPQVSTPTL [Derivative 408-423, LVRYTKKVPQVSTPTL]”, in series [1], the “CXCL12-induced migration of CD34+ human stem cells” value is given as “suppressed”. For the same sequence, the “tumor cell invasion in vitro” value in series [2] is given as “prevented”. The “engraftment rates after transplantation of cells from treated mice” value in series [3] is reported as “increased engraftment rates”. Besides, the cytotoxic effects result in series [4] is “did not display cytotoxic effects”. Moreover, the “CXCL12-induced migration of Jurkat T cells” value in series [5] was “suppressed”. Moreover, in series [6], the “CXCR4-dependent infiltration of neutrophils, lymphocytes and eosinophils into the airways” value was “significantly reduced”; the infiltration of macrophages result is listed as “markedly reduced”. Besides, the DC50 in [7] was 8 ± 3 µM. Besides, the “activity of a large number of other GPCRs” value in series [8] is recorded as “not affected”. Further, the “effects against Candida albicans” value in [9] is listed as “only modest effects”.

These data come from US10294272B2, “Peptides with antagonistic activities against natural CXCR4” (Pharis Biotec GmbH, priority 2013, dated 2019).
